What was measured:
human Cav3.2 = human Cav3.2 (Homo sapiens, UniProt O95180); assay type: cell-based
human Cav2.2/β3/α2δ1 [1] = molecular target: T1, human Cav2.2/β3/α2δ1 (Homo sapiens, UniProt Q00975); assay type: cell-based
human Cav1.2/β2/α2δ1 = human Cav1.2/β2/α2δ1 (Homo sapiens, UniProt Q13936)
human Cav2.1/β4/α2δ1 = human Cav2.1/β4/α2δ1 (Homo sapiens, UniProt O00555); assay type: cell-based
human Cav2.2/β3/α2δ1 [2] = molecular target: T1, human Cav2.2/β3/α2δ1; experiment: IonWorks Barracuda repetitive test pulse train; assay type: cell-based; conditions: Cav2.2, 30 pulse train 0.1 Hz

Chain of human Cav3.2 (O95180 whole entry): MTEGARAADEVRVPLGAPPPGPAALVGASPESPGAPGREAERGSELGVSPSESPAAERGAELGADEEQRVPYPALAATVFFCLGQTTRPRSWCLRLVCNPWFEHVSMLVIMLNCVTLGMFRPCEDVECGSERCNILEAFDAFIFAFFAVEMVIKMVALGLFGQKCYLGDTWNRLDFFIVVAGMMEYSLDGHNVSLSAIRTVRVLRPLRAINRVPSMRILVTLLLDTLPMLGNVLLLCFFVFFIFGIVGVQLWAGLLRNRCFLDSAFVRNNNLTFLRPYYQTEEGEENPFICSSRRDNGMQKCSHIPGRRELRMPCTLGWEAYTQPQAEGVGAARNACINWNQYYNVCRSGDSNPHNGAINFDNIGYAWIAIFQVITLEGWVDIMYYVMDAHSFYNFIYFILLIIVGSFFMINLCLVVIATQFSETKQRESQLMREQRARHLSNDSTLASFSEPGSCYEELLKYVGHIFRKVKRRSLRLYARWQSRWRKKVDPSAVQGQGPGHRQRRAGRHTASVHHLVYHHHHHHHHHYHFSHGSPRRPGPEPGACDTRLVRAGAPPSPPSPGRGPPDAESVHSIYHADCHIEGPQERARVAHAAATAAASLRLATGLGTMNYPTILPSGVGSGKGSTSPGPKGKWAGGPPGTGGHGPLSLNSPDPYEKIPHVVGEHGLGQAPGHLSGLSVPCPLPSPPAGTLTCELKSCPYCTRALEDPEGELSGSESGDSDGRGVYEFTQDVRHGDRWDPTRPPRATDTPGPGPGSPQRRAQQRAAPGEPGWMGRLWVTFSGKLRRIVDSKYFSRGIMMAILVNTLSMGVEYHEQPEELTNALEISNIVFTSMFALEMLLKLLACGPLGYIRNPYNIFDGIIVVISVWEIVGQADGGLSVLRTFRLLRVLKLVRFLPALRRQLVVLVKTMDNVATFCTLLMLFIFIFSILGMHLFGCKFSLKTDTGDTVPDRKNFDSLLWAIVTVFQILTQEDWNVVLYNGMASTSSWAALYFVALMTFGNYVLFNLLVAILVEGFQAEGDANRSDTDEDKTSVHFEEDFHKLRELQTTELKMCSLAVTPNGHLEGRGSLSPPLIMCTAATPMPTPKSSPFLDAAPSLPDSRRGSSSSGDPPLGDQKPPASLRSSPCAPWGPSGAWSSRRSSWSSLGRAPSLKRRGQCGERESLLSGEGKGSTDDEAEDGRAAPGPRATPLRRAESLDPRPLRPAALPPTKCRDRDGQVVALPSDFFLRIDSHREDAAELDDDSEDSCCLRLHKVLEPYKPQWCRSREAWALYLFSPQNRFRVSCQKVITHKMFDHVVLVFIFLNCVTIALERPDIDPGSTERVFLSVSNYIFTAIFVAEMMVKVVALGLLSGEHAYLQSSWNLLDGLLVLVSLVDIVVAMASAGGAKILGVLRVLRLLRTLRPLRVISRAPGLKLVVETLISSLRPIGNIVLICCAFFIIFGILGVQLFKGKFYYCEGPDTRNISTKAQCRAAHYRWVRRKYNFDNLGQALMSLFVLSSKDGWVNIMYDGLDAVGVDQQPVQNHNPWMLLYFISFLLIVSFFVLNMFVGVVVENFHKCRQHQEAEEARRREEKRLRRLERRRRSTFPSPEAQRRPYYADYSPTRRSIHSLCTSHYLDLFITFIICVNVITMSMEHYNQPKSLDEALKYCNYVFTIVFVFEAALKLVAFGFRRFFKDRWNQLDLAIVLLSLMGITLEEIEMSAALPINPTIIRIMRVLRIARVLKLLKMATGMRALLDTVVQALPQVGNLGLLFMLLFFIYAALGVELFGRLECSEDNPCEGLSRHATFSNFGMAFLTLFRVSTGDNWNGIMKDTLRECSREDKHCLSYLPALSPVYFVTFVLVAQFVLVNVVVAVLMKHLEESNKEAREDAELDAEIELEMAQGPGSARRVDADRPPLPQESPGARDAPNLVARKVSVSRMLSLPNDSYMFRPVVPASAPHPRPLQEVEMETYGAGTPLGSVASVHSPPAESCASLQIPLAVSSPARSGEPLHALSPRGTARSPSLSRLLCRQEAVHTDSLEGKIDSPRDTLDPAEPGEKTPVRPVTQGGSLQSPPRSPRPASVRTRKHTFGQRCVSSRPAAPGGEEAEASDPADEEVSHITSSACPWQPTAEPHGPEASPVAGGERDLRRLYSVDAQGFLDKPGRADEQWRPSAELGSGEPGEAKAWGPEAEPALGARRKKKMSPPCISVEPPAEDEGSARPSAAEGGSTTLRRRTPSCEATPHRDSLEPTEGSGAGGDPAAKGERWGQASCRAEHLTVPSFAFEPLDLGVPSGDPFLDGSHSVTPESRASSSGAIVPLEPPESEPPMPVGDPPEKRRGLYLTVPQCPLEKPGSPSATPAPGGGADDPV

SMILES: COC(=O)C1=C(C)NC(C)=C(C(=O)OC)C1c1ccccc1[N+](=O)[O-] [Nifedipine, nifedipine]
- sensitivity of Cav3.2 channels (human Cav3.2; concentrations up to 3 μM (not shown)): insensitive

SMILES: COC(=O)C1=C(C)NC(C)=C([N+](=O)[O-])[C@H]1c1ccccc1C(F)(F)F [BAY K8644, (S)-(−)-BAY K8644]
- effect on Cav2.2 at high concentration (human Cav2.2/β3/α2δ1 [1]; concentrations ≥10 μM): nonspecific inhibition
- effect on Cav3.2 at high concentration (human Cav3.2; concentrations ≥10 μM): nonspecific inhibition
- effect on Cav1.2 currents (human Cav1.2/β2/α2δ1; 0.3 μM, test pulse 10 mV, holding −90 mV, 60-s CP to −50 mV): potentiated
- effect on Cav1.2 at high concentration (human Cav1.2/β2/α2δ1; concentrations ≥10 μM): nonspecific inhibition
- extent of potentiation of Cav1.2 channels (human Cav1.2/β2/α2δ1; dose–response, Fig. 2B): twofold potentiation
- effect on Cav2.1 at high concentration (human Cav2.1/β4/α2δ1; concentrations ≥10 μM): nonspecific inhibition

SMILES: COCC(=O)O[C@]1(CCN(C)CCCc2nc3ccccc3[nH]2)CCc2cc(F)ccc2[C@@H]1C(C)C [Mibefradil, mibefradil]
- Cav2.2 blocking characteristics in multiple mode assay (human Cav2.2/β3/α2δ1 [1]; current traces Fig. 5B, 10 μM mibefradil, 30 μM verapamil): use-dependent, but not inactivation-dependent block augmentation
- potency of use-dependent block in Cav3.2 versus Cav1.2 (human Cav3.2; use-dependent block, multiple mode assay): fourfold more potent
- potency of inhibition at TP30 compared with TP1 (human Cav2.2/β3/α2δ1 [2]): about seven times more potent

SMILES: O=c1[nH]c2ccccc2n1C1CCN(CCCC(c2ccc(F)cc2)c2ccc(F)cc2)CC1 [Pimozide, pimozide]
- IC50 (human Cav2.2/β3/α2δ1 [1]): > 30 µM
- IC50 (human Cav2.1/β4/α2δ1): > 30 µM

— article PMC4657039 (Assay and Drug Development Technologies, 2014)
